Numbering of substitutions follows the chain as printed.
Legend:
mmSTING [1] = assay: Gel-based analysis of C-176-22 labelling (click chemistry, in-gel fluorescence) in HEK293T cells; assay type: binding, mouse; conditions: for labelling of STING mutant: 0.25 µM; for labelling of other protein targets / proteome-wide selectivity: whole cell lysate, C-176-22 0.25µM
Experimental: (§1) Reporter activity was measured 16 h after compound treatment. A nonlinear regression analysis was performed. […] Cytokine levels were normalized to DMSO-treated control cells. […] Nuclei were stained with DAPI. […] Depicted genes were measured by RT-qPCR. […] 16 h later Luciferase activity was measured. […] Flag-STING was immunoprecipitated and analysed by autoradiography.
(§2) HEK293T cells expressing Flag-STING were incubated with C-176-22 (0.25 µM) in serum free media, collected in PBSs and lysed by repetitive freezing and thawing. 43 µl of lysed cells were treated with freshly prepared "click reagent" mixture containing tris(benzyltriazolylmethyl)amine (TBTA) (3 µl/sample, 3 mM in 1:4 DMSO:t-ButOH), tetramethylrhodamine (TAMRA) azide (2 µl/sample, 1.25 mM in DMSO), and freshly prepared CuSO4 (1 µl/sample) and tris-(2-carboxyethyl)phosphine hydrochloride (TCEP) (1µl/sample) and incubated at room temperature for 1 h. The reaction was quenched by addition of reducing sample buffer. In-gel fluorescence was visualized using Fusion FX (Vilber Lourmat) and analysed by Fusion capt advance acquisition software.
(§3) We next sought to elucidate the molecular details of the interaction between C-178 and the TM part of STING. Our SAR studies highlighted the importance of the nitrofuran motif for the activity of the discovered inhibitors. Given the strong electrophilic potential of this group, we suspected that C-178 might react with a TM residue generating a covalent interaction. […] To further test the hypothesis of covalent engagement of STING, we synthesized a derivative of C-176-22, which bears an alkyne group amenable for copper-catalyzed azide alkyne cycloaddition (Click Chemistry) and performed gel-based profiling studies (Fig. 3d). Having verified that C-176-22 is still active (Fig. 7), HEK293T cells expressing STING were exposed to C-176-22, lysed, coupled to a tetramethylrhodamine (TAMRA-)azide tag and C-176-22-modified proteins were visualized using in-gel fluorescence scanning. HEK293T cells without STING served as a control for assessing non-specific protein labelling. […] Based on the observed mass shift, we postulate a nitrobenzyl rearrangement-like reaction to generate covalent bonding between C-178 and STING (see below). […] We next sought to identify the residue through which C-178 achieves binding to STING. Among the naturally occurring amino acids, cysteine residues are well-known targets of electrophilic small molecules. […] In addition, binding to and inhibition of STING are two separable functions of C-178.

mmSTING [2] = biological target: T1, mmSTING (Mus musculus, UniProt Q3TBT3, V27A); assay: as above; assay type: binding; conditions: STING V27A; 0.25 µM
T1 construct: expressed in transfected cells; host or cells: HEK293T (lentiviral transduction, induced overnight)
T1 sequence (Q3TBT3 1-378 V27A): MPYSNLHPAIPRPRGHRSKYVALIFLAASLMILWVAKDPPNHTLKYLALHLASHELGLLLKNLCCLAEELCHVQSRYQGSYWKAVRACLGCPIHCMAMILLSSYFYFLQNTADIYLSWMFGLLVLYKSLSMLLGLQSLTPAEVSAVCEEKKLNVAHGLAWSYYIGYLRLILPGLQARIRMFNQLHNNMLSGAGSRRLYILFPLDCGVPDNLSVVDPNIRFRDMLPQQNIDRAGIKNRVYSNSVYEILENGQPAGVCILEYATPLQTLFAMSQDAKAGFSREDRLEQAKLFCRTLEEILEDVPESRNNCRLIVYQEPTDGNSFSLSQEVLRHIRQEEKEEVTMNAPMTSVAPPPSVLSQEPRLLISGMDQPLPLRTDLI
Experimental: as §1, §2, §3

mmSTING [3] = biological target: T2, mmSTING (Mus musculus, UniProt Q3TBT3); assay: as above; assay type: binding; conditions: HEK293T expressing STING
T2 construct: expressed in transfected cells; host or cells: HEK293T (lentiviral transduction, induced overnight)
T2 sequence (Q3TBT3 1-378): T1 sequence (Q3TBT3 1-378 V27A) with A27V
Experimental: as §1, §2, §3

STING = biological target: T3, STING (Mus musculus, UniProt Q3TBT3); assay: IFN-beta luciferase reporter in HEK293T cells transfected with STING, alone or with a cyclic dinucleotide synthase; assay type: cell-based; design: expressed in transfected cells; host or cells: HEK293T; conditions: HEK293T transfected with mmSTING, 16 h
T3 sequence (Q3TBT3 1-378): T1 sequence (Q3TBT3 1-378 V27A) with A27V
Experimental: as §1
HEK293T cells expressing murine STING with an N-terminal mCherry-tag ^28 were transfected using GeneJuice (Millipore) with a construct encoding for cyclic di-GMP synthase in conjunction with an IFN-• firefly luciferase reporter plasmid. 3 h after transfection cells were seeded in […] (Corning) coated with library compounds. For each compounds, a 40 nl volume was selected to obtain a concentration of 10 µM in the assay plates. The amount of DMSO in each well was normalised to 0.1%. After overnight treatment, cells were lysed in lysis buffer (25 mM Tris-phosphate (pH 7.8), 2 mM DTT, 2 mM 1,2-diaminocyclohexane-N,N,N',N'-tetraacetic acid, 10% glycerol, 1% Triton® X-100) for 20 min followed by the addition of firefly luciferase. Reporter activity was measured using a Tecan Infinite plate reader. The screen was performed using on ∼ 20.000 compounds from a chemically diverse compound collection available at the BSF core facility at EPFL.
In these cells, transient transfection of vectors encoding for cyclic di-GMP synthase (cdG-Syn) and an IFN-• reporter leads to robust induction of firefly luciferase activity. We used this system to perform a high-throughput chemical screen with a library of ∼ 20.000 small molecule compounds (Fig. 6b). To increase the selectivity of candidate compounds against the STING pathway, hits from the primary screen were counter-screened for their effect on RIG-I-driven activation of the IFN-• reporter. […] To further validate the two small molecules, we treated wild-type HEK293T cells with C-178 and C-176, in which STING was either expressed alone or in conjunction with cdG-Syn. […] We next conducted a limited structure-activity relationship (SAR) analysis. Since both C-178 and C-176 share a characteristic nitrofuran moiety, we prepared analogues of C-176/8 in which this structural motif was substituted (Fig. 1c).

hsSTING = biological target: T4, hsSTING (Homo sapiens, UniProt Q86WV6); assay: Gel-based analysis of C-176-22 labelling in HEK293T cells expressing human STING; assay type: binding; conditions: HEK293T cells that expressed human STING
T4 construct: expressed in transfected cells; host or cells: HEK293T
T4 sequence (Q86WV6 whole entry): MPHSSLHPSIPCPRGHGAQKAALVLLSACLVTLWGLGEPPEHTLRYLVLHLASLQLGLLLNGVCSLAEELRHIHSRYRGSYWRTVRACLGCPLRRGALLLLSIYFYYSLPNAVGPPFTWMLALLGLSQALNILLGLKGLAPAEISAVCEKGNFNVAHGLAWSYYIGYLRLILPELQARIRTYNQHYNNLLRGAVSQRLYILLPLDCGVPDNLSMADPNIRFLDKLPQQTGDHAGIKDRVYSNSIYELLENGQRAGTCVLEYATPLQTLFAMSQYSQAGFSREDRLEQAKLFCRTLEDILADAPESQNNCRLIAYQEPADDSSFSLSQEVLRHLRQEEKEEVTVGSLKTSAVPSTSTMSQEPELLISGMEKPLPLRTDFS
Experimental: as §1
HEK293T cells expressing Flag-STING were incubated with C-176-22 (0.25 µM) in serum free media, collected in PBSs and lysed by repetitive freezing and thawing. […] In-gel fluorescence was visualized using Fusion FX (Vilber Lourmat) and analysed by Fusion capt advance acquisition software.
We next sought to elucidate the molecular details of the interaction between C-178 and the TM part of STING. […] Having verified that C-176-22 is still active (Fig. 7), HEK293T cells expressing STING were exposed to C-176-22, lysed, coupled to a tetramethylrhodamine (TAMRA-)azide tag and C-176-22-modified proteins were visualized using in-gel fluorescence scanning. […]

Compound: C#Cc1ccc(NC(=O)c2ccc([N+](=O)[O-])o2)cc1 [C-176-22]
- labelling band in cells without STING (mmSTING [1]; HEK293T cells that lacked STING expression): not detectable
- labelling of STING mutant (mmSTING [1]; cysteine-to-alanine or cysteine-to-serine mutation at position 91): completely abolished
- labelling of STING mutant (mmSTING [1]; mutated C88): did not influence
- labelling of other protein targets / proteome-wide selectivity (mmSTING [1]): negligible labelling
- labelling of other protein targets / proteome-wide selectivity (mmSTING [1]; listed as C176L): highly specifically labels mmSTING
- labelling of STING mutant (mmSTING [2]): efficiently interacted
- labelling of STING, in-gel fluorescence signal (37 kDa) (mmSTING [3]): marked, dose-dependent signal
- inhibitory activity, IFN-• luciferase reporter (STING): still active
- inhibitory activity, IFN-• luciferase reporter (STING; listed as C176L): inhibitory active
- labelling of human STING (hsSTING): hardly detectable, if at all
